{"source": "patent US20070254928A1", "about": "“Use of Roflumilast for the Prophylaxis or Treatment of Emphysema” (Altana Pharma AG, priority 2004, published 2007)", "format_in_all_cases": "in vivo", "key": {"[1]": {"system": "cigarette smoke induced emphysema in mice (C57BI/6J)", "experiment": "Chronic model of cigarette smoke exposure in mice: morphometric assessment of emphysema (Lm, ISA)", "settings": "for Lm (mean linear intercept) / ISA (internal surface area of the lung): 7 months, mean ± SEM; for ISA (internal surface area of the lung): ISA=4VL/Lm; for Inhibition of emphysema formation (Lm and ISA), in words: smoke-exposed", "method": "(§1) Effects of ROFLUMILAST in an Chronic Model of Cigarette Smoke Exposure in Mice\n(§2) Eighty 6 week old male mice of the strain C57BI/6J (supplied Harlan-Italy, Udine, Italy) were used in this study. The mice were housed in groups of 7 to 10 in macrolon cages. Room temperature was kept at 22° to 24° C.; and relative humidity at 40 to 50%; food and water were supplied ad libitum. All animal experimentation was approved by the Local Ethical Committee of the University of Siena.\n(§3) ROFLUMILAST was given p.o. by gavage in a volume of 10 μl suspension/g body weight 60 min prior to either air or smoke exposure.\n(§4) The methodology for chronic smoke exposure has been previously described in detail (Cavarra et al; Am J Respir Crit Care Med 2001; Vol 164, pp 886-890). Briefly, mice were exposed to either the smoke of 3 cigarettes/day (commercial Virginia filter cigarettes: 12 mg of tar and 0.9 mg of nicotine), 5 days/week or to room air (controls) for 7 months, in especially designed macrolon cages (Tecniplast, Buguggiate, Italy). These cages (42.5×26.6×19 cm) are equipped with a disposable filter cover which enables the air to flow out of the cages and thus to be continuously renewed. The smoke was produced by the burning of a cigarette and was introduced into the chamber with the airflow generated by a mechanical ventilator (7025 Rodent Ventilator, Ugo Basile, Biological Research Instruments, Comerio, Italy), at a rate of 33 ml /min. A second mechanical ventilator was used to provide room air for dilution (1:8) of the smoke-stream. With this methodology the mice were exposed to the smoke originated by three cigarettes once a day for the duration of 90 min. In a pilot study, the efficiency of the smoke delivery system was tested in 12 mice by measuring blood HbCO by co-oxymetry.\nSeven months after chronic exposure to room air or cigarette smoke (24 h after last exposure), 5 to 12 animals of each group, were anesthetized with ether and then exsanguinated by severing the abdominal aorta. The lungs were excised and fixed intratracheally with buffered formalin (5%) at a constant pressure of 20 cm H2O for at least 24 hours. Post-fixation lung volume (VL) was measured by water displacement. All lungs were then dehydrated, cleared in toluene and embedded under vacuum in paraffin. Two 7-μm transversal sections were made and stained with hematoxylin-eosin and/or periodic acid-Schiff (PAS). Two pathologists blinded to the exposure protocol carried out the morphological and morphometrical evaluation.\nMorphometric assessment of emphysema included determination of the average inter-alveolar distance (mean linear intercept: Lm) and internal surface area estimated by the Lm method at postfixation lung volume. For the determination of the Lm for each pair of lungs, 40 histological fields were evaluated both vertically and horizontally. Examination of these numbers of fields meant that practically the entire lung area was evaluated. Internal surface area of the lung (ISA) was calculated by according to the formula: ISA=4VL/Lm.\n(§5) All data were analyzed using GraphPad Prism software (GraphPad Software, San Diego, Calif., USA). For each parameter the values of the individual animals were averaged and the SEM was calculated. The significance of the differences was calculated using parametric one-way analysis of variance (ANOVA) with subsequent Bonferroni's multiple comparison post-test for selected pairs. A p value of <0.05 was considered significant."}, "[2]": {"system": "cigarette smoke induced emphysema in mice (C57BI/6J)", "experiment": "Chronic model of cigarette smoke exposure in mice: lung desmosine content by HPLC", "settings": "for Desmosine (lung content): 7 months, mean ± SEM", "method": "as §1, §2, §3, §4\nLung desmosine concentration was determined by High Pressure Liquid Chromatography (HPLC) essentially according to Cumiskey et al. (J Chromatogr B 1995, Vol 668, pp 199-207). Briefly, lung samples were homogenized in 5% TCA (1:9, w:v) and centrifuged for 10 min. at 4000 g at 4° C. The pellet was then washed twice with distilled water and hydrolyzed for 16 h at 130° C. in 6 N HCl.\nAfter hydrolysis, the samples were centrifuged for 10 min at 2000 g and filtered through a FP 030/3 0.2 μm filter (Schleicher & Schuell). Aliquots (0.5 ml) of samples were desiccated under liquid nitrogen and then suspended in 0.6 ml 0.1 M sodium phosphate, pH 3.73.\nThe HPLC apparatus consisted of a single pump (Pro-Star 210, Varian) delivering isocratic mobile phase, of which 80% was 0.1 M dibasic sodium phosphate adjusted to pH 3.75 with phosphoric acid; the remaining 20% was acetonitrile. Sodium dodecyl sulphate (SDS) was added to a final concentration of 10 mM. The pH was re-adjusted after the addition of acetonitrile and SDS. The flow rate was 0.8 ml/min through a C18 (reverse phase MSORV 100A, Varian). Injection volumes of 100 μl of test samples diluted in 0.1 M sodium phosphate buffer, pH 3.75 was used to detect desmosine concentration. Detection of desmosine was by absorbance at 275 nm. Peak purity was checked with a Pro-Star 330 photodiode array detector (Varian) scanning from 200 to 400 nm. Isodesmosine eluted at approx. 9 min, and desmosine approx. at 12 min. Peak height, appopriate external calibration curves and internal standards were used to quantitate desmosine in unknown samples. Desmosine standards were from Elastin Co. (USA).\nas §5"}, "C57BI/6J mice": {"system": "C57BI/6J mice", "experiment": "Chronic model of cigarette smoke exposure in mice: mortality", "settings": "all groups, ROFLUMILAST 1 or 5 mg/kg p.o., 7 months", "method": "as §2, §3\nas §4, with “A second mechanical ventilator was used to provide room air for dilution (1:8) of the smoke-stream. With this methodology the mice were exposed to the smoke originated by three cigarettes once a day for the duration of 90 min. In a pilot study, the efficiency of the smoke delivery system was tested in 12 mice by measuring blood HbCO by co-oxymetry.” left out"}, "[3]": {"settings": "air exposure, ROFLUMILAST 5 mg/kg p.o."}, "[4]": {"settings": "chronic model of cigarette smoke induced emphysema in mice, dose not given"}, "[5]": {"settings": "cigarette smoke exposure, ROFLUMILAST 1 mg/kg p.o."}, "[6]": {"settings": "cigarette smoke exposure, ROFLUMILAST 5 mg/kg p.o."}}, "note": "Marks after values point to notes of the source that are not given here.", "data": [{"smiles": "O=C(Nc1c(Cl)cncc1Cl)c1ccc(OC(F)F)c(OCC2CC2)c1", "note": "[ROFLUMILAST, 3-cyclopropylmethoxy-4-difluoro-methoxy-N-(3,5-dichloropyrid-4-yl)benzamide]", "values": [{"measurement": "Lm (mean linear intercept)", "setting": "[1]; [3]", "result": "33.48 ± 0.36", "unit": "μm"}, {"measurement": "ISA (internal surface area of the lung)", "setting": "[1]; [3]", "result": "1342.70 ± 23.39## cm^2"}, {"measurement": "Effect on increase of Lm, in words", "setting": "[1]; [4]", "result": "can prevent the increase of Lm"}, {"measurement": "Lm (mean linear intercept)", "setting": "[1]; [5]", "result": "40.79 ± 0.87", "unit": "μm"}, {"measurement": "ISA (internal surface area of the lung)", "setting": "[1]; [5]", "result": "1079.78 ± 35.61** cm^2"}, {"measurement": "Lm (mean linear intercept)", "setting": "[1]; [6]", "result": "34.28 ± 0.31", "unit": "μm"}, {"measurement": "ISA (internal surface area of the lung)", "setting": "[1]; [6]", "result": "1292.21 ± 29.63# cm^2"}, {"measurement": "Inhibition of emphysema formation (Lm and ISA), in words", "setting": "[1]; ROFLUMILAST 1 mg/kg", "result": "unable to inhibit emphysema formation"}, {"measurement": "Inhibition of emphysema formation (Lm and ISA), in words", "setting": "[1]; ROFLUMILAST 5 mg/kg", "result": "gross inhibition of emphysema formation"}, {"measurement": "Desmosine (lung content)", "setting": "[2]; [3]", "result": "2.91 ± 0.08", "unit": "μg/lung"}, {"measurement": "Effect on drop of the desmosine content in the lung, in words", "setting": "[2]; [4]", "result": "can prevent the drop of the desmosine content in the lung"}, {"measurement": "Desmosine (lung content)", "setting": "[2]; [5]", "result": "2.45 ± 0.11", "unit": "μg/lung"}, {"measurement": "Desmosine (lung content)", "setting": "[2]; [6]", "result": "2.98 ± 0.10", "unit": "μg/lung"}, {"measurement": "Lung desmosine content compared to air-exposed, in words", "setting": "[2]; smoke-exposed, ROFLUMILAST 1 mg/kg", "result": "significantly lower lung desmosine content"}, {"measurement": "Lung desmosine content compared to air-exposure, in words", "setting": "[2]; smoke-exposed, ROFLUMILAST 5 mg/kg", "result": "Unchanged lung desmosine content"}, {"measurement": "Mortality", "setting": "C57BI/6J mice", "result": "No animal died"}]}]}
